Experimental data taken from PMC4281220, “Antibacterial Activity of Novel Cationic Peptides against Clinical Isolates of Multi-Drug Resistant Staphylococcus pseudintermedius from Infected Dogs” (PLoS ONE, 2014).
In brackets after ≈: the same amount, converted by molar mass. Read-outs that look alike come from different tables or passages of the source. Non-standard residues stand in square brackets, D forms with d. Residues, ends and D or L forms follow the SMILES beside them.

Tests used:
[1] = system: methicillin sensitive Staphylococcus pseudintermedius (MSSP) strains
Protocol: (§1) Forty isolates of S. pseudintermedius (30 MSSP and 10 MRSP) identified at the Indiana Animal Disease Diagnostic laboratory from specimens collected from dogs admitted to the small animal teaching hospital at Purdue University were included in the study (Tables 2 and 3). […] Vitek identification of S. pseudintermedius was confirmed by a positive coagulase test. Antimicrobial susceptibility was determined by broth microdilution using the SensiTitre (Trek).
(§2) The broth microdilution technique was used to determine the minimum inhibitory concentrations (MIC) of peptides and antibiotics in MHB in accordance with the Clinical and Laboratory Standards Institute (CLSI) guidelines. Peptides were dissolved in sterile distilled water containing 0.02% acetic acid. […] MIC was defined as the lowest concentration of peptide which inhibited the visible growth of bacteria. MIC was done in triplicates and the highest value was reported.

[2] = system: methicillin resistant Staphylococcus pseudintermedius (MRSP) strains
Protocol: as §1, §2

[3] = system: S. pseudintermedius strains; type: cell-based, Staphylococcus pseudintermedius; details: for GM MIC S. pseudintermedius: 24 h
Protocol: The broth microdilution technique was used to determine the minimum inhibitory concentrations (MIC) of peptides and antibiotics in MHB in accordance with the Clinical and Laboratory Standards Institute (CLSI) guidelines. Peptides were dissolved in sterile distilled water containing 0.02% acetic acid. MIC assays were carried out with an initial bacterial inoculum of 5×10^5 colony forming unit (CFU/ml). Peptides and antibiotics were added to Polystyrene 96 well plates (CytoOne, CC7672-7596) at desired concentrations and plates were incubated for 24 hr at 37°C. MIC was defined as the lowest concentration of peptide which inhibited the visible growth of bacteria. MIC was done in triplicates and the highest value was reported.
(§3) Untreated cells were used as a negative control.

[4] = system: macrophage-like cell line (J774A.1); test: Cytotoxicity, MTS assay, J774A.1; type: cell-based
[5] = system: human keratinocyte (HaCat); test: Cytotoxicity, MTS assay, HaCat; type: cell-based; details: for IC50: 24 h
Text: as §3

SP3 [6] = test: Growth kinetics (culture turbidity, OD600); type: cell-based, Staphylococcus pseudintermedius; details: SP3, 5 X MIC, MHB, OD600, within the same time frame (7 hours)
Protocol: The turbidity of bacterial culture after exposure to peptides was measured as described previously. Briefly, logarithmic growth of SP 3 was diluted in MHB to reach OD600≈0.25. One mL of diluted bacteria was added to a plastic cuvette (light path 1 cm). Peptides and antibiotics were added to cuvettes at a concentration equivalent to 5 X MIC as determined in antibacterial assays above. Cuvettes were incubated aerobically at 37°C. At specific time points, OD was measured at 600 nm wavelength by spectrophotometer. Cuvettes containing MHB without bacteria and with the same concentrations of peptide or antibiotic served as blanks. Nisin at 5 X MIC and untreated bacteria were used as positive and negative controls, respectively. The assay was repeated twice and the average was reported.

[7] = system: S. pseudintermedius (SP6); type: cell-based, Staphylococcus pseudintermedius; details: SP6, serial passages at 1/2 X MIC
Text: Results were expressed as the ratio of MIC value after each passage compared to the initial MIC value.

[8] = system: Staphylococcus pseudintermedius (SP3); type: cell-based
Protocol: The synergistic effect between peptides and antimicrobial agents was determined by the combination assay as described previously. Peptide MICs against SP3 were determined in triplicate. […] Additive was defined as an FIC index of 1. Antagonism was defined as an FIC index of >4.

MRSP (SP3) = test: Time kill assay; type: cell-based, Staphylococcus pseudintermedius; details: SP3, 5X MIC, MHB
Protocol: One strain of MRSP (SP3) was grown overnight in MHB, then diluted in fresh MHB and incubated for 2 hr until logarithmic growth phase was achieved. Then bacteria were centrifuged and washed twice with phosphate buffered saline (PBS) and adjusted to ∼5×10^5 CFU/ml in MHB. […] Aliquots at specified time points were taken, serially diluted in PBS and plated in triplicate on MHA. CFUs were counted after incubation of plates for 24 hr at 37°C.

[9] = system: mammalian or microbial proteases; details: effect of the D-amino acids substitution; cited from earlier work
Text: WR-12 is a broad-spectrum AMP and consists exclusively of arginine and tryptophan, arranged to form idealized amphipathic helices. […] Additionally, the D-amino acids ...

[10] = system: mammalian cells (J774A.1 and HaCat); test: Cytotoxicity, MTS assay, statement for both cell lines; details: 24 hours
Protocol: Peptides were assayed at different concentrations against macrophage-like cell line (J774A.1) and human keratinocyte (HaCat) to determine the potential toxic effect in vitro. […] Untreated cells were used as a negative control. […] After incubation, the cells were washed three times with PBS and the media in each well were replaced with 100 µL of DMEM media and 20 µL of assay reagent, MTS 3-(4,5-dimethylthiazol-2-yl)-5-(3-carboxymethoxyphenyl)-2-(4-sulfophenyl)-2H-tetrazolium) (Promega, Madison, WI, USA). The cells were incubated further for 4 h at 37°C. Corrected absorbance readings (actual absorbance readings for each treatment subtracted from background absorbance) were taken using a kinetic ELISA microplate reader (Molecular Devices, Sunnyvale, CA, USA). Cell viability was expressed as percentage of absorbance in comparison to negative control, untreated cells.
Cytotoxicity data were subjected to statistical analysis using GraphPad Prism 6.0 (GraphPad Software, La Jolla, CA). Cytotoxicity data were analyzed using one-way ANOVA, with post hoc Tukey's multiple comparisons test. P-values of <0.01 were considered significant.

SP3 [11] = test: Bacterial membrane permeability (propidium iodide fluorescence); type: cell-based, Staphylococcus pseudintermedius; details: SP3, 5X MIC, 10 µM propidium iodide, 30 minutes; in comparison to (KFF)3K, WR-12 and penetratin
Protocol: Bacterial membrane damage was assessed by fluorescence change of propidium iodide dye as described previously. Briefly, SP3 was grown in MHB to logarithmic phase of growth then diluted to OD600≈0.25. Propidium iodide was mixed with bacteria to a final concentration of 10 µM. […] The percentage of membrane permeabilization was calculated as the percent of fluorescent intensity of peptide-treated samples with respect to fluorescence intensity of propidium iodide-loaded, peptide untreated samples.

[12] = compound serially diluted in the presence of (KFF)3K fixed at one-quarter of its MIC
[13] = compound serially diluted in the presence of IK8 “D isoform” fixed at one-quarter of its MIC
[14] = compound serially diluted in the presence of Penetratin fixed at one-quarter of its MIC
[15] = compound serially diluted in the presence of RR fixed at one-quarter of its MIC
[16] = compound serially diluted in the presence of RRIKA fixed at one-quarter of its MIC
[17] = compound serially diluted in the presence of WR-12 fixed at one-quarter of its MIC

Compound	MIC50 [1]	MIC90 [1]	MIC50 [2]	MIC90 [2]	GM MIC S. pseudintermedius [3]	IC50 ([4]; 24 h)	TI (Therapeutic index) J774A.1 ([4]; 24 h)	IC50 [5]	further results
NCCCC[C@H](NC(=O)[C@H](Cc1ccccc1)NC(=O)[C@H](Cc1ccccc1)NC(=O)[C@H](CCCCN)NC(=O)[C@H](Cc1ccccc1)NC(=O)[C@H](Cc1ccccc1)NC(=O)[C@H](CCCCN)NC(=O)[C@H](Cc1ccccc1)NC(=O)[C@H](Cc1ccccc1)NC(=O)[C@@H](N)CCCCN)C(N)=O [(KFF)3K] (H-KFFKFFKFFK-NH2)	8 µM (≈ 11.3 µg/mL)	16 µM (≈ 22.6 µg/mL)	4 µM (≈ 5.65 µg/mL)	8 µM (≈ 11.3 µg/mL)	7.75 µM	256 µM	33/>33	> 256 µM	
NCC[C@H](O)C(=O)N[C@@H]1C[C@H](N)[C@@H](O[C@H]2O[C@H](CN)[C@@H](O)[C@H](O)[C@H]2O)[C@H](O)[C@H]1O[C@H]1O[C@H](CO)[C@@H](O)[C@H](N)[C@H]1O [Amikacin, amikacin hydrate]									effect on culture turbidity (SP3 [6]): did not reduce the culture turbidity; passage at which shift (doubling) of the MIC began [7]: 4 passage; fold increase in the MIC by passage 10 ([7]; ratio to the initial MIC): 32 fold; FIC index [8, 12]: 0.37; FIC index [8, 13]: 0.75; FIC index [8, 14]: 0.75; FIC index [8, 15]: 0.75; FIC index [8, 16]: 1; FIC index [8, 17]: 1; log10 reduction after 12 hours incubation (MRSP (SP3)): 3 log10; log10 reduction within 3 hours (MRSP (SP3); 37°C): less than one log10 reduction; time after which bactericidal activity was demonstrated (MRSP (SP3); data not shown): 12 h
O=C(O)c1cn(C2CC2)c2cc(N3CCNCC3)c(F)cc2c1=O [Ciprofloxacin, ciprofloxacin]									effect on culture turbidity (SP3 [6]): did not reduce the culture turbidity
CNC(C)C1CCC(N)C(OC2C(N)CC(N)C(OC3OCC(C)(O)C(NC)C3O)C2O)O1 (stereo not shown) [Gentamicin]									FIC index [8, 12]: 0.26; FIC index [8, 13]: 1; FIC index [8, 14]: 1; FIC index [8, 15]: 0.75; FIC index [8, 16]: 1; FIC index [8, 17]: 0.75
CC[C@@H](C)[C@@H](N)C(=O)N[C@H](CCCNC(=N)N)C(=O)N[C@@H](C(=O)N[C@H](CCCCN)C(=O)N[C@@H](C(=O)N[C@H](CCCNC(=N)N)C(=O)N[C@@H](C(=O)N[C@H](CCCCN)C(=O)O)[C@H](C)CC)[C@H](C)CC)[C@H](C)CC [IK8 “D isoform”] (H-[dI][dR][dI][dK][dI][dR][dI][dK]-OH)	4 µM (≈ 4.16 µg/mL)	8 µM (≈ 8.32 µg/mL)	4 µM (≈ 4.16 µg/mL)	4 µM (≈ 4.16 µg/mL)	5 µM	> 256 µM	>51.2/>51.2	> 256 µM	proteolytic degradation by mammalian or microbial proteases [9]: prevented proteolytic degradation
CC[C@H](C)[C@H](NC(=O)CN)C(=O)NCC(=O)N[C@@H](C)C(=O)N[C@H](C(=O)N[C@@H](CC(C)C)C(=O)N[C@@H](CCCCN)C(=O)N[C@H](C(=O)N[C@@H](CC(C)C)C(=O)N[C@H](C(=O)N[C@H](C(=O)NCC(=O)N[C@@H](CC(C)C)C(=O)N1CCC[C@H]1C(=O)N[C@@H](C)C(=O)N[C@@H](CC(C)C)C(=O)N[C@H](C(=O)N[C@@H](CO)C(=O)N[C@@H](Cc1c[nH]c2ccccc12)C(=O)N[C@H](C(=O)N[C@@H](CCCCN)C(=O)N[C@@H](CCCNC(=N)N)C(=O)N[C@@H](CCCCN)C(=O)N[C@@H](CCCNC(=N)N)C(=O)N[C@@H](CCC(N)=O)C(=O)N[C@@H](CCC(N)=O)C(N)=O)[C@@H](C)CC)[C@@H](C)CC)[C@@H](C)O)[C@@H](C)O)C(C)C)C(C)C [Melittin, melittin, reference compound]									MIC ([3]; MIC of the melittin, strain not stated): 5 µM; IC50 ([4]; MTS assay, 24 hours treatment, 8 to 256 µM, DMEM 10% FBS, concentration that inhibits 50% of cells, read-out: IC50 J774A.1): 2 µM; concentration toxic to J774A.1 ([4]; MTS assay, positive control, 24 hours, P<0.01): 5 µM
CC[C@H](C)[C@H](NC(=O)[C@H](CCCNC(=N)N)NC(=O)[C@H](CCCNC(=N)N)NC(=O)[C@H](CC(C)C)NC(=O)[C@H](Cc1c[nH]c2ccccc12)NC(=O)[C@H](C)NC(=O)[C@H](CCCCN)NC(=O)[C@@H](NC(=O)[C@H](CCCNC(=N)N)NC(=O)[C@H](CCCNC(=N)N)NC(=O)[C@H](CC(C)C)NC(=O)[C@@H](N)Cc1c[nH]c2ccccc12)[C@@H](C)CC)C(=O)N[C@@H](CCCCN)C(=O)N[C@@H](C)C(=O)O [RRIKA]	1 µM (≈ 1.87 µg/mL)	2 µM (≈ 3.73 µg/mL)	1 µM (≈ 1.87 µg/mL)	1 µM (≈ 1.87 µg/mL)	1.15 µM	64 µM	55.6	128 µM	TI (Therapeutic index) HaCat ([5]; ratio of the IC50 over the geometric mean MIC value): 111.2
CC[C@H](C)[C@H](NC(=O)[C@H](CCCNC(=N)N)NC(=O)[C@H](CCCNC(=N)N)NC(=O)[C@H](CC(C)C)NC(=O)[C@@H](N)Cc1c[nH]c2ccccc12)C(=O)N[C@@H](CCCCN)C(=O)N[C@@H](C)C(=O)N[C@@H](Cc1c[nH]c2ccccc12)C(=O)N[C@@H](CC(C)C)C(=O)N[C@@H](CCCNC(=N)N)C(=O)N[C@@H](CCCNC(=N)N)C(=O)O [RR] (H-WLRRIKAWLRR-OH)									concentration up to which not toxic to mammalian cells [10]: up to 64 µM
N=C(N)NCCC[C@H](NC(=O)[C@H](CCCNC(=N)N)NC(=O)[C@H](Cc1c[nH]c2ccccc12)NC(=O)[C@H](Cc1c[nH]c2ccccc12)NC(=O)[C@H](CCCNC(=N)N)NC(=O)[C@H](CCCNC(=N)N)NC(=O)[C@H](Cc1c[nH]c2ccccc12)NC(=O)[C@H](Cc1c[nH]c2ccccc12)NC(=O)[C@H](CCCNC(=N)N)NC(=O)[C@H](Cc1c[nH]c2ccccc12)NC(=O)[C@H](Cc1c[nH]c2ccccc12)NC(=O)[C@@H](N)CCCNC(=N)N)C(=O)O [WR-12] (H-RWWRWWRRWWRR-OH)	1 µM (≈ 2.07 µg/mL)	2 µM (≈ 4.14 µg/mL)	0.5 µM (≈ 1.04 µg/mL)	2 µM (≈ 4.14 µg/mL)	1.5 µM	128 µM	85.3/85.3	128 µM	
Nisin									membrane perturbation, propidium iodide fluorescence (comparison in words) (SP3 [11]): faster and more potent at membrane perturbation
